{
  "source": "patent US20260373132A1",
  "about": "“PERK INHIBITORHC-5404 IN COMBINATION WITH ANTI-PD-1 ANTIBODY AND/OR AN ANTIANGIOGENETIC AGENT FOR USE IN THE TREATMENT OF CANCER” (HIBERCELL, INC., priority 2022, published 2026)",
  "key": {"[1]": {"test_system": "tumor vasculature and pericyte cells of 786-O xenografts progressed on axitinib", "assay": "IHC of tumor vasculature and pericytes in 786-O xenografts that progressed on axitinib", "assay_type": "in vivo, mouse", "details": "7 days after rerandomization (FIG. 92)", "description": "Formalin-fixed paraffin-embedded samples were sectioned at 5 μm thickness and mounted on Superfrost Plus microscope slides (Fisher Scientific). All immunohistochemical (IHC) staining was performed on Bond Rx auto-stainer (Leica Biosystems) using the conventional TSA-amplified detection system. Primary antibodies used were as follows: α-CD31 (Abcam #ab182981), α-smooth muscle actin (SMA; Abcam #ab124964), α-Meca32 (Novus Biologicals #NB100-77668). TSA-conjugated Alexa488 and Alexa647 fluorophores from Invitrogen (#B40953 and #B40958) were used at 1:500 dilution. Slides were counterstained with DAPI and cover slipped using Mowiol antifade mounting media (Sigma #D2522).\nSlides were imaged with Aperio Versa 200 (Leica Biosystems) whole-slide scanner using 10×/0.32NA objective, and the data were analyzed using custom-written macros in ImageJ/FIJI (NIH). Briefly, 150 μm of outer edges of the tumor sections were eliminated from the analysis. Gaussian-blurred DAPI channel was used to measure the area of the tissue. Scans of […] were processed with median filter to remove noise, then positive areas were measured with appropriate threshold levels. % positive area for each marker was calculated. CD31-SMA double positive areas were measured via image calculation of the binary images. One-way ANOVA and pair-wise comparisons were performed on the data using Prism GraphPad.\n(§1) After 14 days of treatments, 77 mice bearing the largest tumors were rerandomized into four PD arms (n=8), four efficacy arms (n=10), and 5 tumors sampled on day of rerandomization as a baseline. The remaining animals were removed from study."}, "[2]": {"test_system": "786-O xenografts progressed on axitinib", "assay": "growth of 786-O xenografts that progressed on axitinib", "assay_type": "in vivo, mouse", "details": "single agent 30 mg/kg PO BID, 28 days after progression on axitinib (FIG. 40)", "text": "as §1\nDespite initial responses to VEGFR-TKI therapy, tumor regrowth necessitates subsequent rounds of alternate therapies to improve patient outcomes."}, "[3]": {"assay": "mouse body weight / tolerability", "assay_type": "in vivo", "details": "786-O, HC-5404 3, 10, 30 mg/kg BID and/or cabozantinib 30 mg/kg QD (FIG. 53)", "description": "Body weight and tumor volume were measured twice weekly. Tumor volume was calculated using the formula [tumor volume (mm^3)=π/6×length×width^2] and plotted as means+SEM. The percentage of tumor growth inhibition was calculated at the end of the study using the formula: […], if ΔT>0, ΔT, mean tumor volume of the drug-treated group on the observation day of the study—mean tumor volume of the drug-treated group on initial day of dosing; ΔC, mean tumor volume of the control group on the observation day of the study—mean tumor volume of the control group on initial day of dosing. Regression was calculated using the formula=100×ΔT/Tinitial, if ΔT<0. Animals with >50% regressions were partial responders. Animals with tumor volume of 0 (no measurable tumor) were considered as complete responders, and animals with <50% tumor regression and 30% growth over the baseline were considered as stable disease. Animals with tumors>30% increase over the baseline were considered progressive disease. The % change in body weight was calculated by the formula (body weight on observation day−body weight on initial day)/body weight on initial day×100%."}, "[4]": {"test_system": "MB49 syngeneic bladder cancer model", "assay": "MB49 syngeneic bladder cancer tumor growth", "assay_type": "in vivo, mouse", "description": "C57BL/6 mice were subcutaneously inoculated with MB49 cells, and treatment started on day 8 post cell inoculation. A group of animals (n=10/group) received either vehicle, HC-5404 (PO, BID) (3 mg/kg, 10 mg/kg, or 30 mg/kg), 5 mg/kg anti-PD-1 antibody (aPD-1) (RMP1-14) (IP, BIW), or the combination of both. At various timepoints, animals were sacrificed, and flow cytometry was performed on blood or single cell suspensions from tumors or lymph nodes (n=6).\nMB49 (lot #18B016) mouse urothelial carcinoma cell line was purchased from Sigma—The European Collection of Authenticated Cell Cultures (ECACC). Cells were free of human and animal pathogens as tested by h-IMPACT-I and IMPACT-III (IDEXX Bioresearch, Columbia, MO). Additionally, the genetic profile of the cells matched with the ECACC reference standard as tested by STR based DNA fingerprinting assay. Cells were maintained in DMEM with 10% FBS, and cultured up to 4 passages prior to implantation. Cells were harvested at ~80% confluence, washed twice with DMEM without FBS and suspended in DMEM without FBS at 5×10^6 cells/mL for implantation.\n[…] (7-8 week of age) were implanted into the right flank area subcutaneously under Isoflurane anesthesia with 0.5×10^6 MB49 cells/mouse in a total volume of […] on Day 0. Animals were randomized into treatment groups when the average tumor volume reached ~50 mm^3 on Day 5 post inoculation.\nTumor volume was measured twice weekly.\nTumor volume was calculated using the formula [tumor volume (mm^3)=π/6×length×width^2) and plotted as means±SEM. The % T/C (ratio between the tumor volume in the treated group and in the control group) was calculated by the formula 100×ΔT/ΔC, if ΔT>0 of the mean values. ΔT, mean tumor volume of the drug-treated group on the observation day of the study—mean tumor volume of the drug-treated group on initial day of dosing; ΔC, mean tumor volume of the control group on the observation day of the study—mean tumor volume of the control group on initial day of dosing. Regression was calculated using the formula=100×ΔT/Tinitial, if ΔT<0. Animals with <14 mm^3 tumor volume for three consecutive measurements were considered as complete responders and tumors with >50% regressions were partial responders.\nThis example investigated the effect of HC-5404, aPD-1, and HC-5404 in combination with aPD-1 on myeloid cells in tumor microenvironment and T-cell activation following procedures analogous to those described above using MB49 syngeneic model. […] Mice with established syngeneic MB49 tumors were randomized 6 days post tumor inoculation into groups that received either vehicle (0.5% methylcellulose in water, BID, PO), HC-5404 (10 or 30 mg/kg, BID, PO), anti-PD-1 Ab (10 mg/kg, BIW), or both HC-5404 and anti-PD-1."}},
  "data": [
    {"smiles": "Cc1cc(NC(=O)[C@H](O)c2cc(F)cc(F)c2)ccc1-c1cnc(N)c(C(=O)NC(C)C)c1", "note": "[HC-5404, (R)-2-amino-5-(4-(2-(3,5-difluorophenyl)-2-hydroxyacetamido)-2-methylphenyl)-N-isopropylnicotinamide]", "values": [
      {"measurement": "proportion of smooth muscle actin (SMA)", "setting": "[1]", "result": "decreased"},
      {"measurement": "tumor growth inhibition relative to vehicle", "setting": "[2]", "result": 47, "unit": "%"},
      {"measurement": "mouse body weight", "setting": "[3]", "result": "did not affect mouse body weight"},
      {"measurement": "TGI %", "setting": "[4]; Experiment #1, HC-5404 30 mpk, aPD-1, alone or combined", "result": 52.99, "unit": "%"},
      {"measurement": "TGI %", "setting": "[4]; Experiment #2, HC-5404 30 mpk, aPD-1, alone or combined", "result": 10.64, "unit": "%"},
      {"measurement": "tumor growth inhibition (TGI)", "setting": "[4]; HC-5404 PO BID, aPD-1 5 mg/kg IP BIW, alone or combined", "result": 32, "unit": "%"},
      {"measurement": "TGI %, average", "setting": "[4]; average of two independent studies, HC-5404 30 mpk, aPD-1, alone or combined", "result": 31.82, "unit": "%"}
    ]}
  ]
}
